Key:
Test in all cases: Test B preemergence/postemergence greenhouse plant response rating 0 to 10
Details in all cases: 0 to 10 scale
barley = format: in vivo, Hordeum vulgare
Outline: (§1)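 Test chemicals were sprayed onto freshly planted seed and, concurrently, onto young plants between the one and four leaf stage. After a twelve- to sixteen-day greenhouse period, each species was visually compared with untreated controls.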

sorghum = format: in vivo, Sorghum bicolor
Outline: as §1

rape = format: in vivo, Brassica napus
Outline: as §1

bedstraw = format: in vivo, Galium aparine
Outline: as §1

cotton = format: in vivo, Gossypium hirsutum
Outline: as §1

blackgrass = format: in vivo, Alopecurus myosuroides
Outline: as §1

lambsquarters = format: in vivo, Chenopodium album
Outline: as §1

velvetleaf = format: in vivo, Abutilon theophrasti
Outline: as §1

chickweed = format: in vivo, Stellaria media
Outline: as §1

purple nutsedge = format: in vivo, Cyperus rotundus
Outline: as §1

wild oat = format: in vivo, Avena fatua
Outline: as §1

sugar beet = format: in vivo, Beta vulgaris
Outline: as §1

corn = format: in vivo, Zea mays
Outline: as §1

cheatgrass = format: in vivo, Bromus secalinus
Outline: as §1

barnyardgrass = format: in vivo, Echinochloa crus-galli
Outline: as §1

wheat = format: in vivo, Triticum aestivum
Outline: as §1

giant foxtail = format: in vivo, Setaria faberii
Outline: as §1

rice = format: in vivo, Oryza sativa
Outline: as §1

wild buckwheat = format: in vivo, Polygonum convolvulus
Outline: as §1

morningglory = format: in vivo, Ipomoea hederacea
Outline: as §1

cocklebur = format: in vivo, Xanthium pensylvanicum
Outline: as §1

soybean = format: in vivo, Glycine max
Outline: as §1

crabgrass = format: in vivo, Digitaria spp.
Outline: as §1

O=C1COc2cc(F)c(-c3nn4c(c3Cl)CCCC4)cc2N1 [Compound 51]
Plant response rating, Barley (barley; POSTEMERGENCE, Rate 50 g/ha): 3 | Plant response rating, Barley (barley; POSTEMERGENCE, Rate 200 g/ha): 3 | Plant response rating, Barley (barley; PREEMERGENCE, Rate 50 g/ha): 0 | Plant response rating, Barley (barley; Rate 200 g/ha, PREEMERGENCE): 0 | Plant response rating, Sorghum (sorghum; POSTEMERGENCE, Rate 50 g/ha): 4 | Plant response rating, Sorghum (sorghum; PREEMERGENCE, Rate 50 g/ha): 0 | Plant response rating, Sorghum (sorghum; Rate 200 g/ha, POSTEMERGENCE): 6 | Plant response rating, Sorghum (sorghum; Rate 200 g/ha, PREEMERGENCE): 0 | Plant response rating, Rape (rape; POSTEMERGENCE, Rate 50 g/ha): 7 | Plant response rating, Rape (rape; PREEMERGENCE, Rate 50 g/ha): 8 | Plant response rating, Rape (rape; Rate 200 g/ha, POSTEMERGENCE): 10 | Plant response rating, Rape (rape; Rate 200 g/ha, PREEMERGENCE): 10 | Plant response rating, Bedstraw (bedstraw; POSTEMERGENCE, Rate 50 g/ha): 10 | Plant response rating, Bedstraw (bedstraw; POSTEMERGENCE, Rate 200 g/ha): 10 | Plant response rating, Bedstraw (bedstraw; PREEMERGENCE, Rate 50 g/ha): 5 | Plant response rating, Bedstraw (bedstraw; Rate 200 g/ha, PREEMERGENCE): 10 | Plant response rating, Cotton (cotton; POSTEMERGENCE, Rate 50 g/ha): 10 | Plant response rating, Cotton (cotton; POSTEMERGENCE, Rate 200 g/ha): 10 | Plant response rating, Cotton (cotton; PREEMERGENCE, Rate 50 g/ha): 1 | Plant response rating, Cotton (cotton; Rate 200 g/ha, PREEMERGENCE): 5 | Plant response rating, Blackgrass (blackgrass; POSTEMERGENCE, Rate 50 g/ha): 6 | Plant response rating, Blackgrass (blackgrass; POSTEMERGENCE, Rate 200 g/ha): 6 | Plant response rating, Blackgrass (blackgrass; PREEMERGENCE, Rate 50 g/ha): 2 | Plant response rating, Blackgrass (blackgrass; Rate 200 g/ha, PREEMERGENCE): 6 | Plant response rating, Lambsquarter (lambsquarters; POSTEMERGENCE, Rate 50 g/ha): 10 | Plant response rating, Lambsquarter (lambsquarters; PREEMERGENCE, Rate 50 g/ha): 10 | Plant response rating, Lambsquarter (lambsquarters; Rate 200 g/ha, POSTEMERGENCE): 10 | Plant response rating, Lambsquarter (lambsquarters; Rate 200 g/ha, PREEMERGENCE): 10 | Plant response rating, Velvetleaf (velvetleaf; POSTEMERGENCE, Rate 50 g/ha): 9 | Plant response rating, Velvetleaf (velvetleaf; PREEMERGENCE, Rate 50 g/ha): 10 | Plant response rating, Velvetleaf (velvetleaf; Rate 200 g/ha, POSTEMERGENCE): 10 | Plant response rating, Velvetleaf (velvetleaf; Rate 200 g/ha, PREEMERGENCE): 10 | Plant response rating, Chickweed (chickweed; POSTEMERGENCE, Rate 50 g/ha): 10 | Plant response rating, Chickweed (chickweed; POSTEMERGENCE, Rate 200 g/ha): 10 | Plant response rating, Chickweed (chickweed; PREEMERGENCE, Rate 50 g/ha): 6 | Plant response rating, Chickweed (chickweed; Rate 200 g/ha, PREEMERGENCE): 10 | Plant response rating, Nutsedge (purple nutsedge; POSTEMERGENCE, Rate 50 g/ha): 3 | Plant response rating, Nutsedge (purple nutsedge; PREEMERGENCE, Rate 50 g/ha): 0 | Plant response rating, Nutsedge (purple nutsedge; Rate 200 g/ha, POSTEMERGENCE): 3 | Plant response rating, Nutsedge (purple nutsedge; Rate 200 g/ha, PREEMERGENCE): 0 | Plant response rating, Wild oat (wild oat; POSTEMERGENCE, Rate 50 g/ha): 2 | Plant response rating, Wild oat (wild oat; PREEMERGENCE, Rate 50 g/ha): 0 | Plant response rating, Wild oat (wild oat; Rate 200 g/ha, POSTEMERGENCE): 3 | Plant response rating, Sugar beet (sugar beet; POSTEMERGENCE, Rate 50 g/ha): 10 | Plant response rating, Sugar beet (sugar beet; PREEMERGENCE, Rate 50 g/ha): 10 | Plant response rating, Sugar beet (sugar beet; Rate 200 g/ha, POSTEMERGENCE): 10 | Plant response rating, Sugar beet (sugar beet; Rate 200 g/ha, PREEMERGENCE): 10 | Plant response rating, Corn (corn; POSTEMERGENCE, Rate 50 g/ha): 4 | Plant response rating, Corn (corn; POSTEMERGENCE, Rate 200 g/ha): 6 | Plant response rating, Corn (corn; PREEMERGENCE, Rate 50 g/ha): 0 | Plant response rating, Corn (corn; Rate 200 g/ha, PREEMERGENCE): 0 | Plant response rating, Cheatgrass (cheatgrass; POSTEMERGENCE, Rate 50 g/ha): 4 | Plant response rating, Cheatgrass (cheatgrass; POSTEMERGENCE, Rate 200 g/ha): 4 | Plant response rating, Cheatgrass (cheatgrass; PREEMERGENCE, Rate 50 g/ha): 3 | Plant response rating, Cheatgrass (cheatgrass; Rate 200 g/ha, PREEMERGENCE): 5 | Plant response rating, Barnyardgrass (barnyardgrass; POSTEMERGENCE, Rate 50 g/ha): 8 | Plant response rating, Barnyardgrass (barnyardgrass; POSTEMERGENCE, Rate 200 g/ha): 9 | Plant response rating, Barnyardgrass (barnyardgrass; PREEMERGENCE, Rate 50 g/ha): 9 | Plant response rating, Barnyardgrass (barnyardgrass; Rate 200 g/ha, PREEMERGENCE): 9 | Plant response rating, Wheat (wheat; POSTEMERGENCE, Rate 50 g/ha): 3 | Plant response rating, Wheat (wheat; PREEMERGENCE, Rate 50 g/ha): 0 | Plant response rating, Wheat (wheat; Rate 200 g/ha, POSTEMERGENCE): 4 | Plant response rating, Wheat (wheat; Rate 200 g/ha, PREEMERGENCE): 2 | Plant response rating, Giant foxtail (giant foxtail; POSTEMERGENCE, Rate 50 g/ha): 4 | Plant response rating, Giant foxtail (giant foxtail; PREEMERGENCE, Rate 50 g/ha): 2 | Plant response rating, Giant foxtail (giant foxtail; Rate 200 g/ha, POSTEMERGENCE): 6 | Plant response rating, Giant foxtail (giant foxtail; Rate 200 g/ha, PREEMERGENCE): 8 | Plant response rating, Rice (rice; POSTEMERGENCE, Rate 50 g/ha): 3 | Plant response rating, Rice (rice; PREEMERGENCE, Rate 50 g/ha): 0 | Plant response rating, Rice (rice; Rate 200 g/ha, POSTEMERGENCE): 5 | Plant response rating, Rice (rice; Rate 200 g/ha, PREEMERGENCE): 2 | Plant response rating, Wild buckwheat (wild buckwheat; POSTEMERGENCE, Rate 50 g/ha): 10 | Plant response rating, Wild buckwheat (wild buckwheat; PREEMERGENCE, Rate 50 g/ha): 10 | Plant response rating, Wild buckwheat (wild buckwheat; Rate 200 g/ha, POSTEMERGENCE): 10 | Plant response rating, Wild buckwheat (wild buckwheat; Rate 200 g/ha, PREEMERGENCE): 10 | Plant response rating, Morningglory (morningglory; POSTEMERGENCE, Rate 50 g/ha): 9 | Plant response rating, Morningglory (morningglory; PREEMERGENCE, Rate 50 g/ha): 9 | Plant response rating, Morningglory (morningglory; Rate 200 g/ha, POSTEMERGENCE): 10 | Plant response rating, Morningglory (morningglory; Rate 200 g/ha, PREEMERGENCE): 10 | Plant response rating, Cocklebur (cocklebur; POSTEMERGENCE, Rate 50 g/ha): 9 | Plant response rating, Cocklebur (cocklebur; POSTEMERGENCE, Rate 200 g/ha): 10 | Plant response rating, Cocklebur (cocklebur; PREEMERGENCE, Rate 50 g/ha): 2 | Plant response rating, Cocklebur (cocklebur; Rate 200 g/ha, PREEMERGENCE): 9 | Plant response rating, Soybean (soybean; POSTEMERGENCE, Rate 50 g/ha): 8 | Plant response rating, Soybean (soybean; PREEMERGENCE, Rate 50 g/ha): 1 | Plant response rating, Soybean (soybean; Rate 200 g/ha, POSTEMERGENCE): 9 | Plant response rating, Soybean (soybean; Rate 200 g/ha, PREEMERGENCE): 8 | Plant response rating, Crabgrass (crabgrass; POSTEMERGENCE, Rate 50 g/ha): 4 | Plant response rating, Crabgrass (crabgrass; POSTEMERGENCE, Rate 200 g/ha): 5 | Plant response rating, Crabgrass (crabgrass; PREEMERGENCE, Rate 50 g/ha): 2 | Plant response rating, Crabgrass (crabgrass; Rate 200 g/ha, PREEMERGENCE): 9
